How the values were obtained:
[1] = target: recombinant rat α5β3γ2F77I receptors (Rattus norvegicus, UniProt P18508+P19969, F115I); assay: Two-electrode voltage clamp of GABA-induced chloride currents in Xenopus oocytes; format: cell-based; conditions: α5β3γ2F77I, ns = not significant
[2] = target: recombinant rat α2β3γ2 receptors (Rattus norvegicus, UniProt P18508+P23576); assay: as above; format: cell-based
[3] = target: recombinant rat α3β3γ2 receptors (Rattus norvegicus, UniProt P18508+P20236); assay: as above; format: cell-based; conditions: for efficacy (% GABA EC3): α3β3γ2, ns = not significant
[4] = target: recombinant rat α3β3γ2F77I receptors (Rattus norvegicus, UniProt P18508+P20236, F115I); assay: as above; format: cell-based; conditions: α3β3γ2F77I, ns = not significant
[5] = target: recombinant rat α1β3γ2 receptors (Rattus norvegicus, UniProt P18508+P62813); assay: as above; format: cell-based; conditions: for efficacy (% GABA EC3): ns = not significant
recombinant rat α1β3γ2 receptors, sequence (P62813 28-455): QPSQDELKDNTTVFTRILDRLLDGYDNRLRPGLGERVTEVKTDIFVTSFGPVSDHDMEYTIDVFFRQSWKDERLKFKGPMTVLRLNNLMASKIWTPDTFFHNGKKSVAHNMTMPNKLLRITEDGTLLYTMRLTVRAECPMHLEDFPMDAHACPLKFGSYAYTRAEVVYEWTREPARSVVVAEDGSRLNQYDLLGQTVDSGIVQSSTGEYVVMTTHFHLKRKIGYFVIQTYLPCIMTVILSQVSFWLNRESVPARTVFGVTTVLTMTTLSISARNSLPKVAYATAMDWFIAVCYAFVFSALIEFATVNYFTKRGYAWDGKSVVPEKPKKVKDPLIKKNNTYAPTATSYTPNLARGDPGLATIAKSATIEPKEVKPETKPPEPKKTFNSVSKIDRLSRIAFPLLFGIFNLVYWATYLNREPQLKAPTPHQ
recombinant rat α1β3γ2 receptors, sequence (P63079 26-473 partner): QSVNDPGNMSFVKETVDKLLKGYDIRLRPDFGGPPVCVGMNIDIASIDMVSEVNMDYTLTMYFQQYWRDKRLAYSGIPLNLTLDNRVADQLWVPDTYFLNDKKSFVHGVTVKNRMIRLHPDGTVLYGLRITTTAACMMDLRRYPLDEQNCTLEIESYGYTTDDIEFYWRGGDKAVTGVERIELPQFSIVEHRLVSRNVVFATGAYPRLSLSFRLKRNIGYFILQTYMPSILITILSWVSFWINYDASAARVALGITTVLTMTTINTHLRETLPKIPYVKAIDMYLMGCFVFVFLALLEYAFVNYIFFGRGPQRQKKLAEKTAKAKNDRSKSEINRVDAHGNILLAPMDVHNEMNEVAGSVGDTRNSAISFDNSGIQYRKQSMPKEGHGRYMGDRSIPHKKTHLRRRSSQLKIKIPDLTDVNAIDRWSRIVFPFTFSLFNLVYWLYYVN
recombinant rat α1β3γ2 receptors, sequence (P18508 39-466): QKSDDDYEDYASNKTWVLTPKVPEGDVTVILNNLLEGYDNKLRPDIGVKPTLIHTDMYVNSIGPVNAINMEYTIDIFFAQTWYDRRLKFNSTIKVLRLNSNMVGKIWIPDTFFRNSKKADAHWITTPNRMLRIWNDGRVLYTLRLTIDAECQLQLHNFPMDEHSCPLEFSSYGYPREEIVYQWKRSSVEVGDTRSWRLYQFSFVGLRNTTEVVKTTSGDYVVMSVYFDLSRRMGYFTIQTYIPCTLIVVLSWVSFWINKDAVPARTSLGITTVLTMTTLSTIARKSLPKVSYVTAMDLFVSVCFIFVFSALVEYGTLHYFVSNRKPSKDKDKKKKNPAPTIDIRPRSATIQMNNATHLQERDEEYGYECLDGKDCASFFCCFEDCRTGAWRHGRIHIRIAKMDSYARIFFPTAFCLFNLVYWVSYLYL

[6] = target: recombinant rat α5β3γ2 receptors (Rattus norvegicus, UniProt P18508+P19969); assay: as above; format: cell-based; conditions: for efficacy (% GABA EC3): α5β3γ2, ns = not significant
[7] = test system: GABAA receptors of mice containing the point mutation γ2F77I; conditions: receptor binding; ref Ogris et al., 2004; cited from earlier work
[8] = target: recombinant rat α2β3γ2F77I receptors (Rattus norvegicus, UniProt P18508+P23576, F115I); assay: Two-electrode voltage clamp of GABA-induced chloride currents in Xenopus oocytes; format: cell-based; conditions: α2β3γ2F77I, ns = not significant
[9] = target: recombinant rat α1β3γ2F77I receptors (Rattus norvegicus, UniProt P18508+P62813, F115I); assay: as above; format: cell-based; conditions: α1β3γ2F77I; for efficacy (% GABA EC3): ns = not significant
recombinant rat α1β3γ2F77I receptors, sequence (P62813 28-455): as the sequence (P62813 28-455) above
recombinant rat α1β3γ2F77I receptors, sequence (P63079 26-473 partner): as the sequence (P63079 26-473 partner) above
recombinant rat α1β3γ2F77I receptors, sequence (P18508 39-466 F115I): as the sequence (P18508 39-466) above, with F77I counted along it

[10] = test system: GABAA receptors containing the γ2F77I mutation; assay: Modulation of GABA EC3 in receptors containing the γ2F77I mutation; format: cell-based, rat; conditions: 10 μM; some γ2F77I receptors
[11] = target: recombinant rat α4β3γ2 receptors (Rattus norvegicus, UniProt P18508+P28471); assay: Two-electrode voltage clamp of GABA-induced chloride currents in Xenopus oocytes; format: cell-based; conditions: for efficacy (% GABA EC3): α4β3γ2, ns = not significant
[12] = target: recombinant rat α6β3γ2 receptors (Rattus norvegicus, UniProt P18508+P30191); assay: as above; format: cell-based; conditions: for efficacy (% GABA EC3): α6β3γ2, ns = not significant
α5 receptors = conditions: ref Atack et al., 2006; Quirk et al., 1996; cited from earlier work
α3β3γ2 receptors = conditions: 10 μM, ref Atack et al., 2006; cited from earlier work
[13] = target: recombinant rat α6β3γ2F77I receptors (Rattus norvegicus, UniProt P18508+P30191, F115I); assay: Two-electrode voltage clamp of GABA-induced chloride currents in Xenopus oocytes; format: cell-based; conditions: ns = not significant
recombinant rat α6β3γ2F77I receptors, sequence (P30191 20-453): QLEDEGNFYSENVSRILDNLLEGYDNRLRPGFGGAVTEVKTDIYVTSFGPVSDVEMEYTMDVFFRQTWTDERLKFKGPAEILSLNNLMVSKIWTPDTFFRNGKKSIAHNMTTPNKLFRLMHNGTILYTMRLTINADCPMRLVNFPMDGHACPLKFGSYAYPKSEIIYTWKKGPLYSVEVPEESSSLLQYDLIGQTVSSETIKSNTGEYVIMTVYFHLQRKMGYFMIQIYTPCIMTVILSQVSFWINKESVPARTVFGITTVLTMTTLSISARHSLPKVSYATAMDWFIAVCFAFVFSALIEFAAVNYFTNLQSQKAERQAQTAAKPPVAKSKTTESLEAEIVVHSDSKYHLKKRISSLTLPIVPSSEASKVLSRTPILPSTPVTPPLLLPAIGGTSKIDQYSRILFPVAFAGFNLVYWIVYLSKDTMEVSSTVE
recombinant rat α6β3γ2F77I receptors, sequence (P63079 26-473 partner): as the sequence (P63079 26-473 partner) above
recombinant rat α6β3γ2F77I receptors, sequence (P18508 39-466 F115I): as the sequence (P18508 39-466) above, with F77I counted along it

[14] = target: recombinant rat α4β3γ2F77I receptors (Rattus norvegicus, UniProt P18508+P28471, F115I); assay: as above; format: cell-based; conditions: ns = not significant
α1β3 receptors = α1β3 receptors (Rattus norvegicus, UniProt P62813+P63079); assay: Zn2+ reduction of GABA-induced chloride flux; format: cell-based; conditions: 10 μM Zn2+, means ± SEM, n=4
α1β3 receptors, sequence (P62813 28-455): as the sequence (P62813 28-455) above
α1β3 receptors, sequence (P63079 26-473): as the sequence (P63079 26-473 partner) above

[15] = 100 nM, α2β3γ2, ns = not significant
[16] = 1 μM, α2β3γ2, ns = not significant
[17] = 10 μM, α2β3γ2, ns = not significant
[18] = read-out: efficacy (% GABA EC3)

Cc1nnc2ccc(-c3cccc(C(F)(F)F)c3)nn12 [CL 218872, 3-methyl-6-[3-trifluoromethyl-phenyl]-1,2,4-triazolo[4,3-b]pyridazine]
efficacy (% GABA EC3) ([1]; 100 nM): ns
efficacy (% GABA EC3) ([1]; 1 μM): ns
efficacy (% GABA EC3) ([1]; 10 μM): 120 ± 3 % GABA EC3
efficacy (% GABA EC3) [2, 15]: ns
efficacy (% GABA EC3) [2, 16]: ns
efficacy (% GABA EC3) [2, 17]: 162 ± 3 % GABA EC3
further fold reduction of potency for enhancing GABA current ([2]; α2β3γ2 versus α3β3γ2): approximately 3 fold
efficacy (% GABA EC3) ([3]; 100 nM): 114 ± 2 % GABA EC3
efficacy (% GABA EC3) ([3]; 1 μM): 138 ± 7 % GABA EC3
efficacy (% GABA EC3) ([3]; 10 μM): 195 ± 8 % GABA EC3
fold reduced potency for enhancing GABA EC3 ([3]; α3β3γ2 versus α1β3γ2): approximately 3 fold
efficacy (% GABA EC3) ([4]; 100 nM): ns
efficacy (% GABA EC3) ([4]; 1 μM): ns
efficacy (% GABA EC3) ([4]; 10 μM): 125 ± 3 % GABA EC3
efficacy (% GABA EC3) ([5]; 100 nM, α1β3γ2): 119 ± 7 % GABA EC3
efficacy (% GABA EC3) ([5]; 1 μM, α1β3γ2): 172 ± 10 % GABA EC3
efficacy (% GABA EC3) ([5]; 10 μM, α1β3γ2): 214 ± 13 % GABA EC3
efficacy (% GABA EC3) ([6]; 100 nM): ns
efficacy (% GABA EC3) ([6]; 1 μM): 114 ± 1 % GABA EC3
efficacy (% GABA EC3) ([6]; 10 μM): 128 ± 2 % GABA EC3
shift in affinity caused by γ2F77I [7]: ~900 fold
efficacy (% GABA EC3) ([8]; 100 nM): ns
efficacy (% GABA EC3) ([8]; 1 μM): ns
efficacy (% GABA EC3) ([8]; 10 μM): ns
efficacy (% GABA EC3) ([9]; 100 nM): ns
efficacy (% GABA EC3) ([9]; 1 μM): ns
efficacy (% GABA EC3) ([9]; 10 μM): 132 ± 4 % GABA EC3
stimulation of GABA-induced chloride flux [10]: 20–40%
efficacy (% GABA EC3) ([11]; 100 nM): ns
efficacy (% GABA EC3) ([11]; 1 μM): ns
efficacy (% GABA EC3) ([11]; 1 μM, listed as Cl218872): no effect
efficacy (% GABA EC3) ([11]; 10 μM): 199 ± 27 % GABA EC3
efficacy (% GABA EC3) ([12]; 100 nM): ns
efficacy (% GABA EC3) ([12]; 1 μM): ns
efficacy (% GABA EC3) ([12]; 10 μM): ns
efficacy (% GABA EC3) ([12]; 10 μM, listed as Cl218872): no significant stimulation

CCOC(=O)c1ncn2c1C1CCCN1C(=O)c1cc(OC)ccc1-2 [L-655,708, ethyl-7-methoxy-11,12,13,13a-tetrahydro-9-oxo-9H-imidazo[1,5-a]pyrrolo[2,1-c][1,4] benzodiazepine-1-carboxylate]
efficacy (% GABA EC3) ([1]; 10 nM): ns
efficacy (% GABA EC3) ([1]; 100 nM): ns
efficacy (% GABA EC3) ([1]; 1 μM): ns
efficacy (% GABA EC3) ([1]; 10 μM): ns
selectivity for α5 receptors in receptor binding assays (α5 receptors): 30–50 fold
efficacy (% GABA EC3) ([2]; 10 nM, α2β3γ2, ns = not significant): ns
efficacy (% GABA EC3) [2, 15]: ns
activity at 1 µM ([2]; read-out: efficacy (% GABA EC3), 1 μM, α2β3γ2, ns = not significant): 93 ± 1%
activity at 10 µM ([2]; read-out: efficacy (% GABA EC3), 10 μM, α2β3γ2, ns = not significant): 90%
EC50 [3]: 10 ± 3 nM
activity at 0.01 µM [3, 18]: 113 ± 1%
activity at 0.1 µM [3, 18]: 126 ± 1%
activity at 1 µM [3, 18]: 131 ± 4%
activity at 10 µM [3, 18]: 126 ± 4%
reduction of GABA-induced chloride flux to (α3β3γ2 receptors): 90%
efficacy (% GABA EC3) ([4]; 10 nM): ns
efficacy (% GABA EC3) ([4]; 100 nM): ns
efficacy (% GABA EC3) ([4]; 1 μM): ns
efficacy (% GABA EC3) ([4]; 10 μM): ns
efficacy (% GABA EC3) ([5]; 10 nM, α1β3γ2): ns
efficacy (% GABA EC3) ([5]; 100 nM, α1β3γ2): ns
efficacy (% GABA EC3) ([5]; 1 μM, α1β3γ2): ns
efficacy (% GABA EC3) ([5]; 10 μM, α1β3γ2): 90 ± 4 % GABA EC3
activity at 10 µM [5, 18]: 90%
efficacy (% GABA EC3) ([6]; 10 nM): ns
activity at 0.1 µM [6, 18]: 91 ± 1%
activity at 1 µM [6, 18]: 84 ± 5%
activity at 10 µM [6, 18]: 66 ± 7%
shift in affinity caused by γ2F77I [7]: > 1000 fold
efficacy (% GABA EC3) ([13]; 10 nM): ns
efficacy (% GABA EC3) ([13]; 100 nM): ns
efficacy (% GABA EC3) ([13]; 1 μM): ns
efficacy (% GABA EC3) ([13]; 10 μM): ns
efficacy (% GABA EC3) ([8]; 10 nM): ns
efficacy (% GABA EC3) ([8]; 100 nM): ns
efficacy (% GABA EC3) ([8]; 1 μM): ns
efficacy (% GABA EC3) ([8]; 10 μM): ns
efficacy (% GABA EC3) ([9]; 10 nM): ns
efficacy (% GABA EC3) ([9]; 100 nM): ns
efficacy (% GABA EC3) ([9]; 1 μM): ns
efficacy (% GABA EC3) ([9]; 10 μM): ns
EC50 [11]: 168 ± 71 nM
efficacy (% GABA EC3) ([11]; 10 nM): ns
activity at 0.1 µM [11, 18]: 143 ± 12%
activity at 1 µM [11, 18]: 215 ± 4%
activity at 10 µM [11, 18]: 224 ± 15%
efficacy (% GABA EC3) ([14]; 10 nM): ns
efficacy (% GABA EC3) ([14]; 100 nM): ns
efficacy (% GABA EC3) ([14]; 1 μM): ns
efficacy (% GABA EC3) ([14]; 10 μM): ns
EC50 [12]: > 470 nM
activity at 0.01 µM [12, 18]: 118 ± 4%
activity at 0.1 µM [12, 18]: 131 ± 12%
activity at 1 µM [12, 18]: 176 ± 25%
activity at 10 µM [12, 18]: 199 ± 31%

[Zn+2] [Zn^2+]
GABA-induced chloride flux reduced to ([5]; 10 μM Zn2+, α1β3γ2, means ± SEM, n=4): 70.3 ± 3%
GABA-induced chloride flux reduced to ([9]; 10 μM Zn2+, means ± SEM, n=4): 75.4 ± 3%
GABA-induced chloride flux reduced to (α1β3 receptors): 5.5 ± 1%

CN1CCN(C(=O)OC2c3nccnc3C(=O)N2c2ccc(Cl)cn2)CC1 (stereo not shown) [Zopiclone, 4-methyl-1-piperazinecarboxylic acid-6-(5-chloro-2-pyridinyl)-6,7-dihydro-7-oxo-5H-pyrrolo[3,4-b]pyrazin-5-yl ester]
efficacy (% GABA EC3) ([1]; 100 nM): ns
efficacy (% GABA EC3) ([1]; 1 μM): 114 ± 2 % GABA EC3
efficacy (% GABA EC3) ([1]; 10 μM): 144 ± 1 % GABA EC3
EC50 [2]: 400 ± 64 nM
efficacy (% GABA EC3) [2, 15]: 157 ± 9 % GABA EC3
efficacy (% GABA EC3) [2, 16]: 289 ± 16 % GABA EC3
efficacy (% GABA EC3) [2, 17]: 356 ± 22 % GABA EC3
EC50 [3]: > 793 nM
efficacy (% GABA EC3) ([3]; 100 nM): 161 ± 10 % GABA EC3
efficacy (% GABA EC3) ([3]; 1 μM): 377 ± 24 % GABA EC3
efficacy (% GABA EC3) ([3]; 10 μM): 559 ± 30 % GABA EC3
efficacy (% GABA EC3) ([4]; 100 nM): ns
efficacy (% GABA EC3) ([4]; 1 μM): 107 ± 1 % GABA EC3
efficacy (% GABA EC3) ([4]; 10 μM): 119 ± 4 % GABA EC3
EC50 [5]: 163 ± 19 nM
efficacy (% GABA EC3) ([5]; 100 nM, α1β3γ2): 211 ± 17 % GABA EC3
efficacy (% GABA EC3) ([5]; 1 μM, α1β3γ2): 347 ± 35 % GABA EC3
efficacy (% GABA EC3) ([5]; 10 μM, α1β3γ2): 383 ± 36 % GABA EC3
EC50 [6]: 176 ± 1 nM
efficacy (% GABA EC3) ([6]; 100 nM): 191 ± 8 % GABA EC3
efficacy (% GABA EC3) ([6]; 1 μM): 313 ± 18 % GABA EC3
efficacy (% GABA EC3) ([6]; 10 μM): 345 ± 22 % GABA EC3
shift in affinity caused by γ2F77I [7]: ~100 fold
efficacy (% GABA EC3) ([8]; 100 nM): ns
efficacy (% GABA EC3) ([8]; 1 μM): ns
efficacy (% GABA EC3) ([8]; 10 μM): 121 ± 2 % GABA EC3
efficacy (% GABA EC3) ([9]; 100 nM): ns
efficacy (% GABA EC3) ([9]; 1 μM): ns
efficacy (% GABA EC3) ([9]; 10 μM): 125 ± 3 % GABA EC3
stimulation of GABA-induced chloride flux [10]: 20–40%
efficacy (% GABA EC3) ([11]; 1 μM): ns
efficacy (% GABA EC3) ([11]; 10 μM): ns
efficacy (% GABA EC3) ([11]; 10 μM, listed as zopiclone): did not significantly stimulate
efficacy (% GABA EC3) ([12]; 1 μM): ns
efficacy (% GABA EC3) ([12]; 10 μM): ns
efficacy (% GABA EC3) ([12]; 10 μM, listed as zopiclone): did not significantly stimulate
